Laboratory results reported in US20130324606A1, “Ester Derivatives of Bimatoprost Compositions and Methods” (ALLERGAN, INC., priority 2011, published 2013).

Legend:
[1] = Pharmacokinetic assessment of mouse hair regrowth model; assay type: in vivo; settings: mice, 0.03% dermal daily ~60 uL, all measured time points, LC/MS-MS
Description: Female C57BL/6J mice (n=2) were assayed per time point per treatment group. Treatment groups: (1) vehicle; (2) 0.03% Cmpd IVa; (3) 0.03% Cmpd IIIb; (4) 0.03% Cmpd IVb; (5) 0.03% bimatoprost. Treatment dosing: dermal daily application of ˜60 uL test compound solution. Blood and skin pharmacokinetic time points were obtained at day 1 (1, 4, 8 and 24-hrs post-dose); day 2 (24-hrs post-dose); day 14 (24-hrs post-dose); and day 42 (28 days post day 14 dose). Bioanalysis employed LC/MS-MS.

[2] = test system: human hair dermal papilla cells, HHDPC; experiment: Cellular dielectric spectroscopy (CDS) in dermal papilla cells; assay type: cell-based
Description: Cellular dielectric spectroscopy (CDS) was conducted in an assay of dermal papilla cells (i.e., human hair dermal papilla cells, HHDPC) with bimatoprost and Cmpds IVc and IVb. As known in the art, CDS is a real-time, non-invasive, label-free, high-throughput, cell-based assay which measures electrical cell impedance. Without wishing to be bound by any theory, it is believed that GPCR activation induces changes in cell morphology, cell-cell interaction, and cell adherence which manifest as a change in cell impedance.

C57Black/6J mice = experiment: Piliation (hair regrowth) studies in mice; assay type: in vivo; settings: 0.03%, topical QD 14 days, vehicle 50% propylene glycol, 30% ethanol, 20% water
Description: C57Black/6J, 7-week old female mice (n=10) were employed in piliation studies. Dorsal hair was shaved (area ˜2 cm×4 cm). Dosing of active agent was once per day (QD) by topical administration for 14 days. Observations were conducted for 42-days to determine onset of new hair growth and day of hair growth completion. Compounds were formulated as either a) 50% propylene glycol, 30% ethanol, 20% water, or b) the formulation of Formulation A described above. The experiments reported for FIGS. 4A-4B, 5A-5B, 6A-6B, 8A-8B, and 9A-9B were conducted using a vehicle with formulation of 50% propylene glycol, 30% ethanol, 20% water. The experiments reported for FIGS. 7A-7B were conducted using a vehicle of Formulation A described above.
For each of FIGS. 4A, 5A, 6A, 7A, 8A and 9A, the histograms depict the day of onset of hair growth. For each of FIGS. 4B, 5B, 6B, 7B, 8B and 9B, the histograms depict the day achieving full hair growth.

[3] = Compound distribution in mouse skin by MALDI-MS imaging; assay type: in vivo; settings: topical dermal, once daily 3 days, 4 hr after day-3 dosing
Description: In order to determine the penetration, accumulation and/or differential distribution of bimatoprost and compounds disclosed herein upon dermal administration, MALDI-MS (matrix assisted laser desorption ionization mass spectroscopy) imaging was conducted on explanted samples of mouse skin after topical dermal administration.
MALDI-MS imaging was conducted on mouse skin strips after administration of bimatoprost or compound disclosed herein once daily for 3 days. Samples of mouse skin were recovered 4 hr after day-3 dosing of compound. Dermal administration was conducted with vehicle, 0.03% bimatoprost, 3% bimatoprost, 0.03% Cmpd IVa, and 3% Cmpd IVa.
FIG. 16A depicts a typical explanted sample of mouse skin for these studies, wherein Cmpd IVa was applied via dermal administration. FIG. 16B depicts the result of MALDI-MS imaging. The intensity of each pixel within FIG. 16B reflects the concentration of Cmpd IVa at the corresponding point in the image depicted in FIG. 16A. FIG. 16C depicts a representative mass spectrum, corresponding to the region of FIG. 16B indicated by the white circle within FIG. 16B. Accordingly, each pixel of the image of FIG. 16B has an associated mass spectrum, providing the amounts of bimatoprost or other administered compound or metabolite thereof.

[4] = In vitro human skin penetration (Franz diffusion chamber); assay type: in vitro ADME; settings: 0.03% in Formulation A, dosed compound
Excerpt: Test material: Dermatomed ex vivo human cadaver posterior trunk skin on 1.0 cm^2 Franz diffusion chamber as known in the art. Test size: 3 skin donors (obtained from New York Firefighters Skin Bank), 3 replicates per donor per formulation. Test formulations: 0.03% active agent (Cmpd IVa, Cmpd IIIb, Cmpd IVb) in Formulation A; control formulation: bimatoprost at 0.03% in Formulation A. Dosing regimen: receptor fluid at 2, 4, 24, and 48 hrs; SC/epidermis and dermis at 48 hrs. Sample analysis: LC/MS-MS to detect bimatoprost and Cmpds IVa, IIIb and IVb.

[5] = Partitioning in artificial sebum; assay type: physicochemical
Description: Compounds bimatoprost, Cmpd IVa, and Cmpd IIIb were added to aqueous solution (1 mL, 2-20 ug/mL), with and without 1-20 mg artificial sebum. Samples were shaken for 16 hr at 37° C. Samples were then centrifuged (8000 RPM) for 15 min at room temperature, prior to collection of the aqueous solution. Samples were analyzed for concentration of compound without artificial sebum (i.e., Co) and with artificial sebum (i.e., Ci) by mass spectroscopy. Artificial sebum and water partition coefficient (Ksebum) was expressed as the concentration of drug in 1 g of artificial sebum divided by the concentration of drug in 1 g of aqueous solution, and was calculated as Ksebum=(Co−Ci)Waqueous/(Ci×Wsebum) (Eqn. 1), where W represents weight.
Artificial sebum was prepared as follows: 15% (w/w) squalene, 15% spermaceti, 10% coconut oil, 1.5% oleic acid, 5% palmitic acid, 2.4% cholesterol oleate, 10% paraffin wax, 10% olive oil, 25% cottonseed oil, 5% palmitoleic acid, 1.2% cholesterol. The melting point of the semi-liquid was 37° C.

mouse skin = experiment: Pathology assessment of mouse hair regrowth model; assay type: in vivo, mice; settings: histology, 0.03% active, vehicle control still in growth phase
Excerpt: Histological samples from test subjects employed in the studies described in Example 12 were obtained for pathology assessment.

- level in the systemic circulation [1]: most undetectable
- EC50 ([2]; cell impedance, tested range 10^−4 to 10^−13 mol/L): 3.0 to 6.3×10^−7 mol/L
- levels of bimatoprost in skin after 3.0% bimatoprost versus after 3.0% Cmpd IVa [3]: much higher
- Percentage Dose Applied, Receptor Chamber Solution, Prodrug ([4]; Franz chamber): 1.1 Percentage Dose Applied
- Percentage Dose Applied, Upper ⅓ Dermis, Prodrug ([4]; dermis at 48 hrs): 7.0 Percentage Dose Applied
- phase in which the majority of compound remains ([5]; artificial sebum / aqueous solution): remain in the aqueous phase
- Ave. Ksebum (artificial sebum and water partition coefficient) ([5]; n = 4, 16 hr at 37° C.): 3.6
SMILES: CCNC(=O)CCC/C=C\C[C@@H]1[C@@H](/C=C/[C@@H](O)CCc2ccccc2)[C@H](O)C[C@@H]1O [bimatoprost, (Z)-7-((1R,2R,3R,5S)-3,5-dihydroxy-2-((S,E)-3-hydroxy-5-phenylpent-1-enyl)cyclopentyl)-N-ethylhept-5-enamide]
- change in cell impedance [2]: characteristic change in cell impedance
- days for hair growth to commence (day of onset of hair growth) (C57Black/6J mice; FIG. 6A): 22 days
- days for full hair growth to be achieved (C57Black/6J mice; FIG. 6B): 44 days
- hair cycle phase at day-42 (mouse skin): returned to the resting phase
